Measurements taken from publication PMC10254530, “Design and Synthesis of Brefeldin A-Isothiocyanate Derivatives with Selectivity and Their Potential for Cervical Cancer Therapy” (Molecules, 2023).
Counter-ions that a name gives are not always drawn.

Legend:
[1] = system: HeLa cells; experiment: CCK-8 antiproliferative assay, HeLa; type: cell-based, human; settings: for IC50: Homo sapiens, HeLa, CCK-8, 48 h, mean ± SD of three experiments, read-out: IC50 HeLa; for SIHeLa, selectivity index between L-02 and HeLa: SI = IC50(L-02)/IC50(HeLa)
Description: (§1) All cells were cultured in Dulbecco’s Modified Eagle’s Medium (DMEM) (Burlington, MA, USA) or Roswell Park Memorial Institute (RPMI)-1640 medium containing 10% fetal bovine serum and 1% penicillin/streptomycin in an incubator at 37 °C and 5% CO2. […] Cell suspension with a concentration of 8 × 10^4 cells/mL was prepared after cell counting. 100 μL cell suspension was added to each well of the 96-well plate and then placed in an incubator overnight. Most of the derivatives were configured into 80 mM, 20 mM or 4 mM stock solution in DMSO, and the stock solution concentration of BFA and paclitaxel was 0.4 mM. […] The medium in each well was discarded, and 100 μL of gradient diluted derivative solution was added (the control group was added with serum-free medium).

[2] = system: A375 cells; experiment: CCK-8 antiproliferative assay, A375; type: cell-based; settings: Homo sapiens, A-375; CCK-8, 48 h, mean ± SD of three experiments; read-out: IC50 A375
Description: as §1

[3] = system: A549 cells; experiment: CCK-8 antiproliferative assay, A549; type: cell-based; settings: Homo sapiens, A549; CCK-8, 48 h, mean ± SD of three experiments; read-out: IC50 A549
Description: as §1

[4] = system: HepG2 cells; experiment: CCK-8 antiproliferative assay, HepG2; type: cell-based; settings: Homo sapiens, HepG2; CCK-8, 48 h, mean ± SD of three experiments; read-out: IC50 HepG2
Description: as §1

[5] = system: L-02 cells; experiment: CCK-8 cytotoxicity assay, normal liver L-02; type: cell-based; settings: Homo sapiens, L02; CCK-8, 48 h, normal liver cells, mean ± SD of three experiments; read-out: IC50 L-02
Description: as §1

[6] = system: MDA-MB-231 cells; experiment: CCK-8 antiproliferative assay, MDA-MB-231; type: cell-based; settings: Homo sapiens, MDA-MB-231; CCK-8, 48 h, mean ± SD of three experiments; read-out: IC50 MDA-MB-231
Description: as §1

Structure (SMILES) | IC50 [1] [µM] | IC50 [2] [µM] | IC50 [3] [µM] | IC50 [4] [µM] | IC50 [5] [µM] | IC50 [6] [µM] | SIHeLa, selectivity index between L-02 and HeLa [1]
C[C@H]1CCC/C=C/[C@@H]2C[C@H](O)C[C@H]2[C@H](OC(=O)CCC(=O)OCCCCCCOC(=O)c2ccc(N=C=S)cc2)/C=C/C(=O)O1 [Compound 9e, (1R,2E,6S,10E,11aS,13S,14aR)-13-Hydroxy-6-methyl-4-oxo-1,6,7,8,9,11a,12,13,14,14a-decahydro-4H-cyclopenta[f][1]oxacyclotridecin-1-yl (6-((4-isothiocyanatobenzoyl)oxy)hexyl) succinate] | 0.81 ± 0.03 | 3.87 ± 0.35 | 2.59 ± 0.13 | 5.77 ± 0.07 | 7.87 ± 0.33 | 1.56 ± 0.05 | –
C[C@H]1CCC/C=C/[C@@H]2C[C@H](O)C[C@H]2[C@H](O)/C=C/C(=O)O1 [BFA, Brefeldin A] | 0.044 ± 0.004 | 0.039 ± 0.001 | 0.056 ± 0.002 | 0.12 ± 0.01 | 0.094 ± 0.004 | 0.054 ± 0.001 | 2.14
C[C@H]1CCC/C=C/[C@@H]2C[C@H](OC(=O)/C=C\C(=O)OCCCCCCOC(=O)c3ccc(N=C=S)cc3)C[C@H]2[C@H](OC(=O)/C=C\C(=O)OCCCCCCOC(=O)c2ccc(N=C=S)cc2)/C=C/C(=O)O1 [Compound 8k, Bis(6-((4-isothiocyanatobenzoyl)oxy)hexyl) O,O’-((1R,2E,6S,10E,11aS,13S,14aR)-6-methyl-4-oxo-1,6,7,8,9,11a,12,13,14,14a-decahydro-4H-cyclopenta[f][1]oxacyclotridecine-1,13-diyl) dimaleate] | > 40 | > 40 | > 40 | > 40 | > 80 | > 40 | –
C[C@H]1CCC/C=C/[C@@H]2C[C@H](O)C[C@H]2[C@H](OC(=O)/C=C\C(=O)OCCCCCCOC(=O)c2ccc(N=C=S)cc2)/C=C/C(=O)O1 [Compound 9k, (1R,2E,6S,10E,11aS,13S,14aR)-13-Hydroxy-6-methyl-4-oxo-1,6,7,8,9,11a,12,13,14,14a-decahydro-4H-cyclopenta[f][1]oxacyclotridecin-1-yl (6-((4-isothiocyanatobenzoyl)oxy)hexyl) maleate] | 2.39 ± 0.1 | 7.27 ± 0.57 | 8.34 ± 0.24 | 3.28 ± 0.27 | 23.9 ± 1.23 | 2.61 ± 0.08 | –
C[C@H]1CCC/C=C/[C@@H]2C[C@H](OC(=O)c3ccc(N=C=S)cc3)C[C@H]2[C@H](O)/C=C/C(=O)O1 [Compound 7, (1R,2E,6S,10E,11aS,13S,14aR)-1-Hydroxy-6-methyl-4-oxo-1,6,7,8,9,11a,12,13,14,14a-decahydro-4H-cyclopenta[f][1]oxacyclotridecin-13-yl 4-isothiocyanatobenzoate] | 3.02 ± 0.23 | 5.78 ± 0.1 | 20.4 ± 1.31 | > 40 | 8.6 ± 0.71 | 17 ± 1.21 | 2.85
CC(=O)O[C@H]1C(=O)[C@@]2(C)[C@H]([C@H](OC(=O)c3ccccc3)[C@]3(O)C[C@H](OC(=O)[C@H](O)[C@@H](NC(=O)c4ccccc4)c4ccccc4)C(C)=C1C3(C)C)[C@]1(OC(C)=O)CO[C@@H]1C[C@@H]2O [paclitaxel, reference compound] | 0.034 ± 0.002 | 0.059 ± 0.001 | 0.014 ± 0.002 | 0.55 ± 0.03 | 0.13 | 0.33 ± 0.03 | 3.82
C[C@H]1CCC/C=C/[C@@H]2C[C@H](O)C[C@H]2[C@H](OC(=O)CCC(=O)OCC#CCOC(=O)c2ccc(N=C=S)cc2)/C=C/C(=O)O1 [Compound 9c, (1R,2E,6S,10E,11aS,13S,14aR)-13-Hydroxy-6-methyl-4-oxo-1,6,7,8,9,11a,12,13,14,14a-decahydro-4H-cyclopenta[f][1]oxacyclotridecin-1-yl (4-((4-isothiocyanatobenzoyl)oxy)but-2-yn-1-yl) succinate] | 3.63 ± 0.15 | 10.4 ± 0.16 | 13.19 ± 0.03 | 8.84 ± 0.28 | 17.4 ± 0.44 | 9.77 ± 0.22 | 4.79
